ChEMBL document CHEMBL1136029, “Inhibition of estrone sulfatase (ES) by derivatives of 4-[(aminosulfonyl)oxy] benzoic acid” (Bioorg Med Chem Lett, 2002)

Assays:
[1] = target: T1, Steryl-sulfatase (Homo sapiens) (UniProt P08842); test: Compound was tested for the Inhibitory activity against the Estrone Sulfatase at a concentration of 10 uM
T1 sequence (whole entry): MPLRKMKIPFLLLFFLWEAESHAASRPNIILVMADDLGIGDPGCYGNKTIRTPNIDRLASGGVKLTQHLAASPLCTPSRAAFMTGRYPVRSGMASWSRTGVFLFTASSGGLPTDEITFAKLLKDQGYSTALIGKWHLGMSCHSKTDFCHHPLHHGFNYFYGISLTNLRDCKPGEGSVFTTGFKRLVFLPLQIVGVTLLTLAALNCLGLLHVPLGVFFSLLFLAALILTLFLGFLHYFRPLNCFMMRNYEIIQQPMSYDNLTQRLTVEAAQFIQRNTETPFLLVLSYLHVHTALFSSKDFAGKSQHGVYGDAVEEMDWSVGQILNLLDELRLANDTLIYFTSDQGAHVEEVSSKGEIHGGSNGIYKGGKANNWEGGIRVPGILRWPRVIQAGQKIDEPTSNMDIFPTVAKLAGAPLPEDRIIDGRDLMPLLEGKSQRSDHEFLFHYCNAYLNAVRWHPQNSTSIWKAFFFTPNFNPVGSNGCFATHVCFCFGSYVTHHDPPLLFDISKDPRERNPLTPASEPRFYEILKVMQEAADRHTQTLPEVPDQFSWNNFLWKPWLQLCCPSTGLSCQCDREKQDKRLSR

[2] = target: T2, Steryl-sulfatase (Homo sapiens, UniProt P08842); test: Inhibitory activity against Estrone Sulfatase
T2 sequence (P08842 whole entry): T1 sequence (whole entry)

[3] = target: T1, Steryl-sulfatase (Homo sapiens); test: Compound was tested for the Inhibitory activity against the Estrone Sulfatase at a concentration of 50 uM
[4] = Dissociation constant determined by calculating its overall stability; format: physicochemical
[5] = target: T2, Steryl-sulfatase; test: Inhibitory activity against Estrone sulfatase was determined
[6] = target: T1, Steryl-sulfatase (Homo sapiens); test: Compound was tested for the Inhibitory activity against the Estrone sulfatase at a concentration of 10 uM
[7] = target: T1, Steryl-sulfatase (Homo sapiens); test: Compound was tested for the Inhibitory activity against the Estrone sulfatase at a concentration of 50 uM

| inhibition [1] [%] | IC50 [2] [µM] | inhibition [3] [%] | pKa [4] | IC50 [5] [µM] | inhibition [6] [%] | inhibition [7] [%] | SMILES |
| --- | --- | --- | --- | --- | --- | --- | --- |
| 42.6 | 13.2 | 76.9 | 8.03 | – | – | – | CCCOC(=O)c1ccc(OS(N)(=O)=O)cc1 |
| 72.6 | 3.8 | – | 8.52 | – | – | – | CCCCCCOC(=O)c1ccc(OS(N)(=O)=O)cc1 |
| 48.3 | 10.5 | – | 8.07 | – | – | – | CCCCOC(=O)c1ccc(OS(N)(=O)=O)cc1 |
| 63 | 5 | 80.4 | – | – | – | – | CCCCCCCCOC(=O)c1ccc(OS(N)(=O)=O)cc1 |
| 25.6 | 31.6 | 63.4 | 8.22 | – | – | – | CCOC(=O)c1ccc(OS(N)(=O)=O)cc1 |

Second part, the compound before the results:

| SMILES | inhibition [1] [%] | IC50 [2] [µM] | inhibition [3] [%] | pKa [4] | IC50 [5] [µM] | inhibition [6] [%] | inhibition [7] [%] |
| --- | --- | --- | --- | --- | --- | --- | --- |
| CCCCCCCCCOC(=O)c1ccc(OS(N)(=O)=O)cc1 | – | 4.8 | 76.2 | – | – | – | – |
| CCCCCCCCCCOC(=O)c1ccc(OS(N)(=O)=O)cc1 | 36.5 | 22.4 | – | – | – | – | – |
| CCCCCCCOC(=O)c1ccc(OS(N)(=O)=O)cc1 | 69.5 | 3.4 | 83.7 | 8.27 | – | – | – |
| COC(=O)c1ccc(OS(N)(=O)=O)cc1 | – | – | – | 8.28 | 31.6 | 25.4 | 74.7 |
| C[C@]12CC[C@@H]3c4ccc(OS(N)(=O)=O)cc4CCC3[C@@H]1CCC2=O (single isomer, unassigned) | 68.6 | – | – | – | – | – | – |
| CCCCCOC(=O)c1ccc(OS(N)(=O)=O)cc1 | 64.4 | 5.9 | 86.2 | 8.47 | – | – | – |
